Results from patent US12077503B2, “Substituted cyclic amides and their use as herbicides” (FMC CORPORATION, priority 2015, dated 2024).

Tests used:
Assay type in all cases: in vivo
[1] = system: redroot pigweed (Amaranthus retroflexus); assay: Test G Pre-Emergence Protocol; conditions: Amaranthus retroflexus, pre-emergence, 312 h, evaluated after 13 days; for pest or weed control at 15.625 g/ha: 15.625 g ai/ha; for pest or weed control at 15.625 g/ha / pest or weed control at 250 g/ha: read-out: Pigweed, Redroot damage rating (100=total damage to plant; 0=no damage to plant); for pest or weed control at 62.5 g/ha: 62.5 g ai/ha, 100=total damage to plant, 0=no damage to plant, read-out: plant damage rating, Pigweed, Redroot; for pest or weed control at 250 g/ha: 250 g ai/ha
Method in brief: (§1)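 Scores are visual damage ratings from 0 (no damage) to 100 (total plant kill), taken 13 days after treatment. Compound was sprayed one day post-sowing at 15.625, 62.5 or 250 g/ha in 50:50 acetone/water with 0.5% Tween 20.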

[2] = system: ivy-leaved morning glory (Ipomoea hederacea); assay: Test G Pre-Emergence Protocol; conditions: Ipomoea, pre-emergence, 312 h, evaluated after 13 days; for pest or weed control at 15.625 g/ha: 15.625 g ai/ha, read-out: Morning-glory, Ivy-leaved damage rating (100=total damage to plant; 0=no damage to plant); for pest or weed control at 62.5 g/ha: 62.5 g ai/ha, 100=total damage to plant, 0=no damage to plant, read-out: plant damage rating, Morningglory, Ivy-leaved; for pest or weed control at 250 g/ha: 250 g ai/ha, read-out: Morningglory, Ivy-leaved damage rating (100=total damage to plant; 0=no damage to plant)
Method in brief: as §1

[3] = system: barnyardgrass (Echinochloa crus-galli); assay: Test G Pre-Emergence Protocol; conditions: Echinochloa crus-galli, pre-emergence, 312 h, evaluated after 13 days; for pest or weed control at 15.625 g/ha: 15.625 g ai/ha, read-out: Barnyard grass damage rating (100=total damage to plant; 0=no damage to plant); for pest or weed control at 62.5 g/ha: 62.5 g ai/ha, 100=total damage to plant, 0=no damage to plant, read-out: plant damage rating, Barnyardgrass; for pest or weed control at 250 g/ha: 250 g ai/ha, read-out: Barnyardgrass damage rating (100=total damage to plant; 0=no damage to plant)
Method in brief: as §1

[4] = system: giant foxtail (Setaria faberi); assay: Test G Pre-Emergence Protocol; conditions: Setaria faberi, pre-emergence, 312 h, evaluated after 13 days; for pest or weed control at 15.625 g/ha: 15.625 g ai/ha; for pest or weed control at 15.625 g/ha / pest or weed control at 250 g/ha: read-out: Foxtail, Giant damage rating (100=total damage to plant; 0=no damage to plant); for pest or weed control at 62.5 g/ha: 62.5 g ai/ha, 100=total damage to plant, 0=no damage to plant, read-out: plant damage rating, Foxtail, Giant; for pest or weed control at 250 g/ha: 250 g ai/ha
Method in brief: as §1

[5] = system: velvetleaf (Abutilon theophrasti); assay: Test G Pre-Emergence Protocol; conditions: Abutilon theophrasti, pre-emergence, 312 h, evaluated after 13 days; for pest or weed control at 15.625 g/ha: 15.625 g ai/ha; for pest or weed control at 15.625 g/ha / pest or weed control at 250 g/ha: read-out: Velvetleaf damage rating (100=total damage to plant; 0=no damage to plant); for pest or weed control at 62.5 g/ha: 62.5 g ai/ha, 100=total damage to plant, 0=no damage to plant, read-out: plant damage rating, Velvetleaf; for pest or weed control at 250 g/ha: 250 g ai/ha
Method in brief: as §1

[6] = system: corn (Zea mays); assay: Test G Pre-Emergence Protocol; conditions: Zea mays, pre-emergence, 312 h, evaluated after 13 days; for plant injury at 15.625 g/ha: 15.625 g ai/ha; for plant injury at 15.625 g/ha / plant injury at 250 g/ha: read-out: Corn damage rating (100=total damage to plant; 0=no damage to plant); for plant injury at 62.5 g/ha: 62.5 g ai/ha, 100=total damage to plant, 0=no damage to plant, read-out: plant damage rating, Corn; for plant injury at 250 g/ha: 250 g ai/ha
Method in brief: as §1

[7] = system: redroot pigweed (Amaranthus retroflexus); assay: Test G Post-Emergence Protocol; conditions: Amaranthus retroflexus, post-emergence, 312 h; for pest or weed control at 15.625 g/ha: 15.625 g ai/ha, evaluated after 13 days (100=total damage to plant; 0=no damage to plant), read-out: Pigweed, Redroot damage rating; for pest or weed control at 62.5 g/ha: 62.5 g ai/ha, read-out: Pigweed, Redroot damage rating (100=total damage to plant; 0=no damage to plant); for pest or weed control at 62.5 g/ha / pest or weed control at 250 g/ha: evaluated after 13 days; for pest or weed control at 250 g/ha: 250 g ai/ha, read-out: damage to plant, Pigweed, Redroot (100=total damage to plant; 0=no damage to plant)
Method in brief: (§2)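 Foliar application was made 8 days after sowing, using an aqueous spray of the active in acetone/water (50:50) with 0.5% Tween 20, at doses of 15.625, 62.5 or 250 g/ha. Injury was assessed 13 days later, where 100 meant the plant was fully damaged.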

[8] = system: ivy-leaved morning glory (Ipomoea hederacea); assay: Test G Post-Emergence Protocol; conditions: Ipomoea, post-emergence, 312 h; for pest or weed control at 15.625 g/ha: 15.625 g ai/ha, evaluated after 13 days (100=total damage to plant; 0=no damage to plant), read-out: Morningglory, Ivy-leaved damage rating; for pest or weed control at 62.5 g/ha: 62.5 g ai/ha, read-out: Morningglory, Ivy-leaved damage rating (100=total damage to plant; 0=no damage to plant); for pest or weed control at 62.5 g/ha / pest or weed control at 250 g/ha: evaluated after 13 days; for pest or weed control at 250 g/ha: 250 g ai/ha, read-out: damage to plant, Morningglory, Ivy-leaved (100=total damage to plant; 0=no damage to plant)
Method in brief: as §2

[9] = system: barnyardgrass (Echinochloa crus-galli); assay: Test G Post-Emergence Protocol; conditions: Echinochloa crus-galli, post-emergence, 312 h; for pest or weed control at 15.625 g/ha: 15.625 g ai/ha, evaluated after 13 days (100=total damage to plant; 0=no damage to plant), read-out: Barnyardgrass damage rating; for pest or weed control at 62.5 g/ha: 62.5 g ai/ha, read-out: Barnyardgrass damage rating (100=total damage to plant; 0=no damage to plant); for pest or weed control at 62.5 g/ha / pest or weed control at 250 g/ha: evaluated after 13 days; for pest or weed control at 250 g/ha: 250 g ai/ha, read-out: damage to plant, Barnyardgrass (100=total damage to plant; 0=no damage to plant)
Method in brief: as §2

[10] = system: giant foxtail (Setaria faberi); assay: Test G Post-Emergence Protocol; conditions: Setaria faberi, post-emergence, 312 h; for pest or weed control at 15.625 g/ha: 15.625 g ai/ha, evaluated after 13 days (100=total damage to plant; 0=no damage to plant), read-out: Foxtail, Giant damage rating; for pest or weed control at 62.5 g/ha: 62.5 g ai/ha, read-out: Foxtail, Giant damage rating (100=total damage to plant; 0=no damage to plant); for pest or weed control at 62.5 g/ha / pest or weed control at 250 g/ha: evaluated after 13 days; for pest or weed control at 250 g/ha: 250 g ai/ha, read-out: damage to plant, Foxtail, Giant (100=total damage to plant; 0=no damage to plant)
Method in brief: as §2

[11] = system: velvetleaf (Abutilon theophrasti); assay: Test G Post-Emergence Protocol; conditions: Abutilon theophrasti, post-emergence, 312 h; for pest or weed control at 15.625 g/ha: 15.625 g ai/ha, evaluated after 13 days (100=total damage to plant; 0=no damage to plant), read-out: Velvetleaf damage rating; for pest or weed control at 62.5 g/ha: 62.5 g ai/ha, read-out: Velvetleaf damage rating (100=total damage to plant; 0=no damage to plant); for pest or weed control at 62.5 g/ha / pest or weed control at 250 g/ha: evaluated after 13 days; for pest or weed control at 250 g/ha: 250 g ai/ha, read-out: damage to plant, Velvetleaf (100=total damage to plant; 0=no damage to plant)
Method in brief: as §2

[12] = system: corn (Zea mays); assay: Test G Post-Emergence Protocol; conditions: Zea mays, post-emergence, 312 h; for plant injury at 15.625 g/ha: 15.625 g ai/ha, evaluated after 13 days (100=total damage to plant; 0=no damage to plant), read-out: Corn damage rating; for plant injury at 62.5 g/ha: 62.5 g ai/ha, read-out: Corn damage rating (100=total damage to plant; 0=no damage to plant); for plant injury at 62.5 g/ha / plant injury at 250 g/ha: evaluated after 13 days; for plant injury at 250 g/ha: 250 g ai/ha, read-out: damage to plant, Corn (100=total damage to plant; 0=no damage to plant)
Method in brief: as §2

Compound	pest or weed control at 15.625 g/ha [1]	pest or weed control at 62.5 g/ha [1]	pest or weed control at 250 g/ha [1]	pest or weed control at 15.625 g/ha [2]	pest or weed control at 62.5 g/ha [2]	pest or weed control at 250 g/ha [2]	pest or weed control at 15.625 g/ha [3]	pest or weed control at 62.5 g/ha [3]	pest or weed control at 250 g/ha [3]	pest or weed control at 15.625 g/ha [4]	pest or weed control at 62.5 g/ha [4]	pest or weed control at 250 g/ha [4]	pest or weed control at 15.625 g/ha [5]	pest or weed control at 62.5 g/ha [5]	pest or weed control at 250 g/ha [5]	plant injury at 15.625 g/ha [6]	plant injury at 62.5 g/ha [6]	plant injury at 250 g/ha [6]	pest or weed control at 15.625 g/ha [7]	pest or weed control at 62.5 g/ha [7]	further results
CN1C[C@@H](c2ccc(C(F)(F)F)nc2)[C@H](C(=O)Nc2ccccc2S(C)(=O)=O)C1=O (racemic) [Compound 1586]	0%	40%	60%	0%	0%	10%	0%	0%	90%	0%	20%	70%	0%	0%	30%	0%	10%	30%	0%	0%	pest or weed control at 250 g/ha [7]: 40%; pest or weed control at 15.625 g/ha [8]: 0%; pest or weed control at 62.5 g/ha [8]: 0%; pest or weed control at 250 g/ha [8]: 40%; pest or weed control at 15.625 g/ha [9]: 0%; pest or weed control at 62.5 g/ha [9]: 0%; pest or weed control at 250 g/ha [9]: 50%; pest or weed control at 15.625 g/ha [10]: 0%; pest or weed control at 62.5 g/ha [10]: 0%; pest or weed control at 250 g/ha [10]: 70%; pest or weed control at 15.625 g/ha [11]: 0%; pest or weed control at 62.5 g/ha [11]: 10%; pest or weed control at 250 g/ha [11]: 10%; plant injury at 15.625 g/ha [12]: 0%; plant injury at 62.5 g/ha [12]: 0%; plant injury at 250 g/ha [12]: 30%
Cc1ccc(NC(=O)[C@@H]2C(=O)N(C)C[C@H]2c2ccc(C(F)(F)F)cc2)c(Cl)c1 (racemic) [Compound 1590]	0%	0%	0%	0%	0%	0%	0%	0%	60%	0%	50%	80%	0%	0%	0%	0%	0%	0%	0%	0%	pest or weed control at 250 g/ha [7]: 0%; pest or weed control at 15.625 g/ha [8]: 0%; pest or weed control at 62.5 g/ha [8]: 20%; pest or weed control at 250 g/ha [8]: 30%; pest or weed control at 15.625 g/ha [9]: 0%; pest or weed control at 62.5 g/ha [9]: 0%; pest or weed control at 250 g/ha [9]: 30%; pest or weed control at 15.625 g/ha [10]: 0%; pest or weed control at 62.5 g/ha [10]: 70%; pest or weed control at 250 g/ha [10]: 80%; pest or weed control at 15.625 g/ha [11]: 0%; pest or weed control at 62.5 g/ha [11]: 0%; pest or weed control at 250 g/ha [11]: 0%; plant injury at 15.625 g/ha [12]: 0%; plant injury at 62.5 g/ha [12]: 0%; plant injury at 250 g/ha [12]: 0%
